Laboratory results: ChEMBL document CHEMBL3351756, “Synthesis and evaluation of the antiplasmodial activity of novel indeno[2,1-c]quinoline derivatives” (Bioorg Med Chem, 2014)
Values after ≈ are worked out from the molar mass of the structure shown.

Test system: Plasmodium falciparum
Experiment: Antimalarial activity against chloroquine-sensitive Plasmodium falciparum D10 infected in human type A-positive red blood cells assessed as growth inhibition after 72 hrs by spectrophotometrically
Type: functional
Conditions: D10, 72 h

Structure (SMILES) | IC50
O/N=C1\c2ccccc2-c2c1c(NCCN1CCOCC1)nc1cc(Cl)ccc21 | 2840 nM
O=C1c2ccccc2-c2c1c(NCCN1CCOCC1)nc1cc(Cl)ccc21 | 3760 nM
O/N=C1\c2ccccc2-c2c1c(NCCN1CCCCC1)nc1ccc(Cl)cc21 | 850 nM
CN1CCN(c2nc3ccc(Cl)cc3c3c2C(=O)c2ccccc2-3)CC1 | 1640 nM
O=C1c2ccccc2-c2c1c(N1CCN(c3ccccn3)CC1)nc1ccc(Cl)cc21 | 6080 nM
O/N=C1\c2ccccc2-c2c1c(N1CCN(c3ccccn3)CC1)nc1ccc(Cl)cc21 | 6610 nM
O/N=C1\c2ccccc2-c2c1c(-n1ccnc1)nc1ccc(Cl)cc21 | > 5000 nM
CN1CCN(CCNc2nc3cc(Cl)ccc3c3c2/C(=N/O)c2ccccc2-3)CC1 | 676 nM
CN1CCN(CCNc2nc3ccc(Cl)cc3c3c2C(=O)c2ccccc2-3)CC1 | 703 nM
COc1nc2ccc(Cl)cc2c2c1/C(=N/NC(=N)N)c1ccccc1-2 | 360 nM
CN1CCN(CCNc2nc3cc(Cl)ccc3c3c2C(=O)c2ccccc2-3)CC1 | 468 nM
COc1nc2ccc(Cl)cc2c2c1/C(=N/N1CCN(C)CC1)c1ccccc1-2 | 4580 nM
CCC(=O)O/N=C1\c2ccccc2-c2c1c(N1CCN(c3ccccn3)CC1)nc1ccc(Cl)cc21 | 4050 nM
CCCCN(CCCC)CC(O)c1cc(Cl)cc2c1-c1ccc(Cl)cc1/C2=C/c1ccc(Cl)cc1 (centres undefined) [LUMEFANTRINE] | 12 nM
CN1CCN(CCNc2nc3ccc(Cl)cc3c3c2/C(=N/O)c2ccccc2-3)CC1 | 667 nM

Test system: Plasmodium falciparum
Experiment: Antimalarial activity against chloroquine-sensitive Plasmodium falciparum 3D7 infected in human type A-positive red blood cells assessed as growth inhibition after 72 hrs by spectrophotometrically
Type: functional, organism-based
Conditions: 3D7, 72 h

Structure (SMILES) | IC50
O=C1c2ccccc2-c2c1c(NCCN1CCCCC1)nc1cc(Cl)ccc21 | 2340 nM
O/N=C1\c2ccccc2-c2c1c(NCCN1CCOCC1)nc1cc(Cl)ccc21 | 5390 nM
O=C1c2ccccc2-c2c1c(NCCN1CCOCC1)nc1cc(Cl)ccc21 | 6780 nM
O/N=C1\c2ccccc2-c2c1c(NCCN1CCCCC1)nc1ccc(Cl)cc21 | 843 nM
O=C(c1ccc2[nH]ccc2c1)N1CCN(C2c3ccccc3-c3ccccc32)CC1 | 16900 nM
O/N=C1\c2ccccc2-c2c1c(NCCN1CCCCC1)nc1cc(Cl)ccc21 | 530 nM
O=C1c2ccccc2-c2c1c(NCCN1CCCCC1)nc1ccc(Cl)cc21 | 1710 nM
CN1CCN(CCNc2nc3ccc(Cl)cc3c3c2C(=O)c2ccccc2-3)CC1 | 1030 nM
CCCCN(CCCC)CC(O)c1cc(Cl)cc2c1-c1ccc(Cl)cc1/C2=C/c1ccc(Cl)cc1 (centres undefined) [LUMEFANTRINE] | 12 nM
CN1CCN(CCNc2nc3ccc(Cl)cc3c3c2/C(=N/O)c2ccccc2-3)CC1 | 818 nM

Test system: Plasmodium falciparum
Experiment: Antimalarial activity against chloroquine-resistant Plasmodium falciparum W2 infected in human type A-positive red blood cells assessed as growth inhibition after 72 hrs by spectrophotometrically
Type: functional, organism-based
Conditions: W2, 72 h

Structure (SMILES) | IC50
O=C1c2ccccc2-c2c1c(NCCN1CCCCC1)nc1cc(Cl)ccc21 | 1170 nM
O/N=C1\c2ccccc2-c2c1c(NCCN1CCOCC1)nc1cc(Cl)ccc21 | 2730 nM
O=C1c2ccccc2-c2c1c(NCCN1CCOCC1)nc1cc(Cl)ccc21 | 2550 nM
O/N=C1\c2ccccc2-c2c1c(NCCN1CCCCC1)nc1ccc(Cl)cc21 | 255 nM
CN1CCN(c2nc3ccc(Cl)cc3c3c2C(=O)c2ccccc2-3)CC1 | 1190 nM
O=C1c2ccccc2-c2c1c(N1CCN(c3ccccn3)CC1)nc1ccc(Cl)cc21 | 6940 nM
O/N=C1\c2ccccc2-c2c1c(NCCN1CCCCC1)nc1cc(Cl)ccc21 | 244 nM
O/N=C1\c2ccccc2-c2c1c(N1CCN(c3ccccn3)CC1)nc1ccc(Cl)cc21 | 6810 nM
O/N=C1\c2ccccc2-c2c1c(-n1ccnc1)nc1ccc(Cl)cc21 | > 5000 nM
O=C1c2ccccc2-c2c1c(NCCN1CCCCC1)nc1ccc(Cl)cc21 | 626 nM
CN1CCN(CCNc2nc3cc(Cl)ccc3c3c2/C(=N/O)c2ccccc2-3)CC1 | 1060 nM
CN1CCN(CCNc2nc3ccc(Cl)cc3c3c2C(=O)c2ccccc2-3)CC1 | 568 nM
COc1nc2ccc(Cl)cc2c2c1/C(=N/NC(=N)N)c1ccccc1-2 | 432 nM
CN1CCN(CCNc2nc3cc(Cl)ccc3c3c2C(=O)c2ccccc2-3)CC1 | 534 nM
COc1nc2ccc(Cl)cc2c2c1/C(=N/N1CCN(C)CC1)c1ccccc1-2 | 3160 nM
CCC(=O)O/N=C1\c2ccccc2-c2c1c(N1CCN(c3ccccn3)CC1)nc1ccc(Cl)cc21 | 4160 nM
CCCCN(CCCC)CC(O)c1cc(Cl)cc2c1-c1ccc(Cl)cc1/C2=C/c1ccc(Cl)cc1 (centres undefined) [LUMEFANTRINE] | 12 nM
CN1CCN(CCNc2nc3ccc(Cl)cc3c3c2/C(=N/O)c2ccccc2-3)CC1 | 699 nM

Test system: not listed separately
Experiment: Resistance index, ratio of IC50 for chloroquine-resistant Plasmodium falciparum W2 to IC50 for chloroquine-sensitive Plasmodium falciparum D10
Type: functional
Conditions: not given

Structure (SMILES) | Ratio IC50
O/N=C1\c2ccccc2-c2c1c(NCCN1CCOCC1)nc1cc(Cl)ccc21 | 1
O=C1c2ccccc2-c2c1c(NCCN1CCOCC1)nc1cc(Cl)ccc21 | 0.7
O/N=C1\c2ccccc2-c2c1c(NCCN1CCCCC1)nc1ccc(Cl)cc21 | 0.3
CN1CCN(c2nc3ccc(Cl)cc3c3c2C(=O)c2ccccc2-3)CC1 | 0.7
O=C1c2ccccc2-c2c1c(N1CCN(c3ccccn3)CC1)nc1ccc(Cl)cc21 | 1.1
O/N=C1\c2ccccc2-c2c1c(N1CCN(c3ccccn3)CC1)nc1ccc(Cl)cc21 | 1
CN1CCN(CCNc2nc3cc(Cl)ccc3c3c2/C(=N/O)c2ccccc2-3)CC1 | 1.6
CN1CCN(CCNc2nc3ccc(Cl)cc3c3c2C(=O)c2ccccc2-3)CC1 | 0.8
COc1nc2ccc(Cl)cc2c2c1/C(=N/NC(=N)N)c1ccccc1-2 | 1.2
CN1CCN(CCNc2nc3cc(Cl)ccc3c3c2C(=O)c2ccccc2-3)CC1 | 1.1
COc1nc2ccc(Cl)cc2c2c1/C(=N/N1CCN(C)CC1)c1ccccc1-2 | 0.7
CCC(=O)O/N=C1\c2ccccc2-c2c1c(N1CCN(c3ccccn3)CC1)nc1ccc(Cl)cc21 | 1
CN1CCN(CCNc2nc3ccc(Cl)cc3c3c2/C(=N/O)c2ccccc2-3)CC1 | 1

Test system: not listed separately
Experiment: Resistance index, ratio of IC50 for chloroquine-resistant Plasmodium falciparum W2 to IC50 for chloroquine-sensitive Plasmodium falciparum 3D7
Type: functional
Conditions: not given

Structure (SMILES) | Ratio IC50
O=C1c2ccccc2-c2c1c(NCCN1CCCCC1)nc1cc(Cl)ccc21 | 0.5
O/N=C1\c2ccccc2-c2c1c(NCCN1CCOCC1)nc1cc(Cl)ccc21 | 0.5
O=C1c2ccccc2-c2c1c(NCCN1CCOCC1)nc1cc(Cl)ccc21 | 0.4
O/N=C1\c2ccccc2-c2c1c(NCCN1CCCCC1)nc1ccc(Cl)cc21 | 0.3
O/N=C1\c2ccccc2-c2c1c(NCCN1CCCCC1)nc1cc(Cl)ccc21 | 0.5
O=C1c2ccccc2-c2c1c(NCCN1CCCCC1)nc1ccc(Cl)cc21 | 0.4
CN1CCN(CCNc2nc3ccc(Cl)cc3c3c2C(=O)c2ccccc2-3)CC1 | 0.5
CN1CCN(CCNc2nc3ccc(Cl)cc3c3c2/C(=N/O)c2ccccc2-3)CC1 | 0.8

Test system: not listed separately
Experiment: Cytotoxicity against HMEC1 assessed as cell growth inhibition after 72 hrs by MTT assay
Design: species or system HMEC-1
Conditions: human, HMEC1 cells

Structure (SMILES) | CC50 at 72 h
O/N=C1\c2ccccc2-c2c1c(NCCN1CCCCC1)nc1ccc(Cl)cc21 | 3120 nM
CN1CCN(c2nc3ccc(Cl)cc3c3c2C(=O)c2ccccc2-3)CC1 | 4030 nM
O/N=C1\c2ccccc2-c2c1c(NCCN1CCCCC1)nc1cc(Cl)ccc21 | 2340 nM
O/N=C1\c2ccccc2-c2c1c(N1CCN(c3ccccn3)CC1)nc1ccc(Cl)cc21 | > 38000 nM
CN1CCN(CCNc2nc3cc(Cl)ccc3c3c2/C(=N/O)c2ccccc2-3)CC1 | 2940 nM
CN1CCN(CCNc2nc3ccc(Cl)cc3c3c2C(=O)c2ccccc2-3)CC1 | 1940 nM
COc1nc2ccc(Cl)cc2c2c1/C(=N/NC(=N)N)c1ccccc1-2 | 1720 nM
CN1CCN(CCNc2nc3cc(Cl)ccc3c3c2C(=O)c2ccccc2-3)CC1 | 3120 nM
COc1nc2ccc(Cl)cc2c2c1/C(=N/N1CCN(C)CC1)c1ccccc1-2 | 5280 nM
CCC(=O)O/N=C1\c2ccccc2-c2c1c(N1CCN(c3ccccn3)CC1)nc1ccc(Cl)cc21 | > 35000 nM
CCN(CC)CCCC(C)Nc1ccnc2cc(Cl)ccc12 (centres undefined) [CHLOROQUINE] | > 38000 nM
CN1CCN(CCNc2nc3ccc(Cl)cc3c3c2/C(=N/O)c2ccccc2-3)CC1 | 2580 nM

Test system: not listed separately
Experiment: Selectivity index, ratio of CC50 for HMEC1 to IC50 for chloroquine-sensitive Plasmodium falciparum D10
Type: functional
Conditions: not given

Structure (SMILES) | Ratio CC50/IC50
O/N=C1\c2ccccc2-c2c1c(NCCN1CCCCC1)nc1ccc(Cl)cc21 | 3.7
CN1CCN(c2nc3ccc(Cl)cc3c3c2C(=O)c2ccccc2-3)CC1 | 2.5
O/N=C1\c2ccccc2-c2c1c(N1CCN(c3ccccn3)CC1)nc1ccc(Cl)cc21 | > 5.8
CN1CCN(CCNc2nc3cc(Cl)ccc3c3c2/C(=N/O)c2ccccc2-3)CC1 | 4.4
CN1CCN(CCNc2nc3ccc(Cl)cc3c3c2C(=O)c2ccccc2-3)CC1 | 2.8
COc1nc2ccc(Cl)cc2c2c1/C(=N/NC(=N)N)c1ccccc1-2 | 4.8
CN1CCN(CCNc2nc3cc(Cl)ccc3c3c2C(=O)c2ccccc2-3)CC1 | 6.7
COc1nc2ccc(Cl)cc2c2c1/C(=N/N1CCN(C)CC1)c1ccccc1-2 | 1.2
CCC(=O)O/N=C1\c2ccccc2-c2c1c(N1CCN(c3ccccn3)CC1)nc1ccc(Cl)cc21 | > 8.7
CN1CCN(CCNc2nc3ccc(Cl)cc3c3c2/C(=N/O)c2ccccc2-3)CC1 | 3.9

Test system: not listed separately
Experiment: Selectivity index, ratio of CC50 for HMEC1 to IC50 for chloroquine-sensitive Plasmodium falciparum 3D7
Type: functional
Conditions: not given

Structure (SMILES) | Ratio CC50/IC50
O/N=C1\c2ccccc2-c2c1c(NCCN1CCCCC1)nc1ccc(Cl)cc21 | 3.7
O/N=C1\c2ccccc2-c2c1c(NCCN1CCCCC1)nc1cc(Cl)ccc21 | 4.4
CN1CCN(CCNc2nc3ccc(Cl)cc3c3c2C(=O)c2ccccc2-3)CC1 | 1.9
CN1CCN(CCNc2nc3ccc(Cl)cc3c3c2/C(=N/O)c2ccccc2-3)CC1 | 3.2

Test system: not listed separately
Experiment: Selectivity index, ratio of CC50 for HMEC1 to IC50 for chloroquine-resistant Plasmodium falciparum W2
Type: functional
Conditions: not given

Structure (SMILES) | Ratio CC50/IC50
O/N=C1\c2ccccc2-c2c1c(NCCN1CCCCC1)nc1ccc(Cl)cc21 | 12
CN1CCN(c2nc3ccc(Cl)cc3c3c2C(=O)c2ccccc2-3)CC1 | 3.4
O/N=C1\c2ccccc2-c2c1c(NCCN1CCCCC1)nc1cc(Cl)ccc21 | 9.6
O/N=C1\c2ccccc2-c2c1c(N1CCN(c3ccccn3)CC1)nc1ccc(Cl)cc21 | > 5.6
CN1CCN(CCNc2nc3cc(Cl)ccc3c3c2/C(=N/O)c2ccccc2-3)CC1 | 2.8
CN1CCN(CCNc2nc3ccc(Cl)cc3c3c2C(=O)c2ccccc2-3)CC1 | 3.4
COc1nc2ccc(Cl)cc2c2c1/C(=N/NC(=N)N)c1ccccc1-2 | 4
CN1CCN(CCNc2nc3cc(Cl)ccc3c3c2C(=O)c2ccccc2-3)CC1 | 5.9
COc1nc2ccc(Cl)cc2c2c1/C(=N/N1CCN(C)CC1)c1ccccc1-2 | 1.7
CCC(=O)O/N=C1\c2ccccc2-c2c1c(N1CCN(c3ccccn3)CC1)nc1ccc(Cl)cc21 | > 8.4
CN1CCN(CCNc2nc3ccc(Cl)cc3c3c2/C(=N/O)c2ccccc2-3)CC1 | 3.7

Target: Heme
Experiment: Binding affinity to heme assessed as inhibition of beta-hematin formation measured as compound IC50 to haemin molar ratio by BHIA assay
Conditions: not given

Structure (SMILES) | IC50
O/N=C1\c2ccccc2-c2c1c(NCCN1CCCCC1)nc1ccc(Cl)cc21 | > 4 molar ratio

Test system: Mycobacterium tuberculosis
Experiment: Antimycobacterial activity against Mycobacterium tuberculosis
Type: functional
Conditions: not given

Structure (SMILES) | MIC
C(=C1c2ccccc2-c2ccccc21)[C@@H]1CCCN2CCCC[C@H]12 | 0.49 µM (≈ 0.155 µg/mL)
Clc1ccc(C(=C[C@@H]2CCCN3CCCC[C@H]23)c2ccc(Cl)cc2)cc1 | 1.6 µM (≈ 0.618 µg/mL)
Clc1cccc(/C(=C\[C@@H]2CCCN3CCCC[C@H]23)c2ccccc2)c1 | 0.85 µM (≈ 0.299 µg/mL)
c1ccc2c(c1)-c1ccccc1C2C[C@@H]1CCCN2CCCC[C@H]12 | 20 µM (≈ 6.35 µg/mL)
C(=C(c1ccccc1)c1ccccc1)[C@@H]1CCCN2CCCC[C@H]12 | 3.9 µM (≈ 1.24 µg/mL)

Test system: Plasmodium falciparum
Experiment: Antimalarial activity against Plasmodium falciparum K1
Type: functional, organism-based
Conditions: not given

Structure (SMILES) | IC50
Clc1ccc(/C(=C\[C@@H]2CCCN3CCCC[C@H]23)c2ccccc2)cc1Cl | 400 nM

Test system: Plasmodium falciparum
Experiment: Antimalarial activity against Plasmodium falciparum Dd2
Type: functional
Conditions: not given

Structure (SMILES) | IC50
O=C(c1ccc2[nH]ccc2c1)N1CCN(C2c3ccccc3-c3ccccc32)CC1 | 21600 nM
